# Legend:
# [1] = test system: TNF-α; assay: LPS induced TNF-α production in vivo; set-up: species or system Swiss Webster (SW) mice; details: one hour before LPS 10 μg/mouse ip, blood after 90 min
# Protocol: FIG. 3. Compound 1 Inhibits LPS Induced TNF-α Production In Vivo.
# Swiss Webster (SW) mice were orally treated with vehicle, dexamethasone (5 mg/kg bw) and compound 1 in example 1 (50 mg/kg bw) one hour before LPS injection (10 μg/mouse, ip) and blood was collected after 90 min and measured TNF-α levels by ELISA as described in FIG. 1.
# [2] = test system: db/db (spontaneous model) diabetic mice; assay: Blood glucose and body weight in db/db obese diabetic mice; assay type: in vivo; details: 50 mg/kg body weight oral in water
# Protocol: FIG. 5. […] Seven weeks old male db/db (spontaneous model) diabetic mice were orally treated with compound 20 in example 20 at a dose of 50 mg/kg body weight in water and blood glucose was monitored by Accuchek glucometer.
# [3] = test system: C57BL/6J male ob/ob diabetic mice; assay: Blood glucose in ob/ob mice; assay type: in vivo; details: 50 mg/kg body weight oral in water, within six days of treatment
# Protocol: FIG. 6. Lowering of Blood Glucose in ob/ob Mice by Compound 20 in Example 20. Seven weeks old C57BL/6J male ob/ob (obese, insulin resistant spontaneous model of type-II diabetes) diabetic mice were orally treated with compound 20 in example 20, at a dose of 50 mg/kg body weight dissolved in water and blood glucose (FIG. 6) was monitored by Accuchek glucometer.
# [4] = test system: Diet induced obese mice; assay: Body weight in diet induced obesity mouse model; assay type: in vivo, C57BL/6J male mouse; details: 60% Kcal high fat diet, 50 mg/kg body weight, compared to vehicle
# Protocol: FIG. 7. Effect of Compound 20 in Example 20 on Diet Induced Obesity Mouse Models. C57BL/6J male mouse were fed with 60% Kcal high fat diet (D12492, Research Diet) ad libitum 15 days prior to the beginning of the treatment. Diet induced obese mice were treated with a dose of 50 mg/kg body weight compound 20 in example 20 and their bodyweight was monitored on every third day.
# [5] = test system: Diet induced obese mice; assay: OGTT and serum insulin in diet induced obesity model; assay type: in vivo, C57BL/6J male mouse; details: day 60 of high fat feeding
# Protocol: C57BL/6J male mouse were fed with 60% Kcal high fat diet (D12492, Research Diet) ad libitum 15 days prior to the beginning of the treatment. Diet induced obese mice were treated with a dose of 50 mg/kg body weight compound 20 in example 20 and their bodyweight was monitored on every third day. […] FIG. 8. Oral Glucose Tolerance Test (OGTT) in Diet Induced Obesity Model for Compound 20 in Example 20. […] To see the effect of compound 20 in example 20, on day 60 an OGTT study was carried to observe the improvement of glucose tolerance upon the treatment of compound 20 in example 20.
# [6] = test system: 3T3-L1 fibroblasts; assay: Adipogenesis in 3T3-L1 fibroblasts (Oil-red-O staining); assay type: cell-based
# Protocol: FIG. 9. Compound 20 in Example 20 is Not Adipogenic.
# All known PPARγ agonists induce differentiation in fibroblast cells. The adipogenic potential of these compounds are correlated with their affinity to this receptor. To check quickly the affinity of compound 20 in example 20 to this receptors, 3T3-L1 fibroblasts were treated with either DMSO control or rosiglitazone as positive control or these two compounds for several days at different concentrations. On day 13th, the differentiated adipocytes were stained with Oil-red-O (Sigma) and washed thoroughly to remove unbound stain and visualized under Olympus microscope.
# [7] = test system: HCT-116; assay: Colon cancer cell growth (MTS viability); assay type: cell-based, human; details: 30 μM, 48 hrs
# Protocol: FIG. 10. […] HCT-116 is a human colon cancer cell line and they were grown in 96 well plates with seeding concentration of […] cells/mL.
# [8] = test system: TNF-α; assay: TNF-α inhibition in LPS-challenged human PBMC (ELISA); assay type: cell-based; details: hPBMC 1×10^6/mL, LPS 100 ng/mL for 20 hours, different concentrations
# Protocol: (§1) FIG. 1. TNF-α, IL-6 and IL-1β inhibition in human peripheral blood monocytic cells (hPBMC).
# (§2) Human PBMC cells were cultured and incubated with compound 1 in example 1 at different concentrations. Cells (1×10^6/mL) were challenged with lipopolysaccharides (LPS) at a concentration of (100 ng/mL) for 20 hours. Cell supernatant was analyzed for the presence of TNF-α, IL-1β and IL-6 cytokines by antibody directed enzyme-linked immunoassay.
# [9] = test system: IL-1β; assay: IL-1β inhibition in LPS-challenged human PBMC (ELISA); assay type: cell-based; details: hPBMC 1×10^6/mL, LPS 100 ng/mL for 20 hours, different concentrations
# Protocol: as §1, §2
# [10] = test system: IL-6; assay: IL-6 inhibition in LPS-challenged human PBMC (ELISA); assay type: cell-based; details: hPBMC 1×10^6/mL, LPS 100 ng/mL for 20 hours, different concentrations
# Protocol: as §1, §2
# [11] = test system: human peripheral blood mononuclear cells; assay: Cell viability of human PBMC incubated with compound; assay type: cell-based; details: hPBMC, highest concentration of the compound
# [12] = biological target: T1, COX-2 (Homo sapiens, UniProt P35354); assay: COX-2 inhibition: LPS induced PGE-2 in human PBMC (ELISA); assay type: cell-based
# T1 construct: LPS, also induces cycloxygenase-2 (COX-2) enzyme in this system; endogenous in cells; host or cells: human peripheral blood mononuclear cells from volunteers, LPS-stimulated
# T1 sequence (P35354 18-604): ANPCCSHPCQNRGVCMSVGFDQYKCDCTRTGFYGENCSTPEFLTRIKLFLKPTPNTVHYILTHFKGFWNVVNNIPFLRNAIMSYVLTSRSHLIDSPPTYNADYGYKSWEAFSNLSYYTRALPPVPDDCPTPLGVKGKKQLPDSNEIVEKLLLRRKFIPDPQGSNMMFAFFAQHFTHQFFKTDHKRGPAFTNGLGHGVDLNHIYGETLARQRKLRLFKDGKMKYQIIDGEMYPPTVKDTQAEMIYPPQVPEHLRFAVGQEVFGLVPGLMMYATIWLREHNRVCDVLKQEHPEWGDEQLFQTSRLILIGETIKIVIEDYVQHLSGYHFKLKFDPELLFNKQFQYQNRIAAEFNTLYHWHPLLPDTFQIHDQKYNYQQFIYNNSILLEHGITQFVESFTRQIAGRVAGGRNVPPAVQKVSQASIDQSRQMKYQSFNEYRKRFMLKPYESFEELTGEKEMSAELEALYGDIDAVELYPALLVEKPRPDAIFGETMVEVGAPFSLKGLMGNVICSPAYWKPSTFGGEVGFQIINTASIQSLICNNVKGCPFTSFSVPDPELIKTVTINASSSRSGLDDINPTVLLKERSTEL
# Protocol: (§3) The inflammatory stimulus, LPS, also induces cycloxygenase-2 (COX-2) enzyme in this system and as a result prostaglandin E 2 (PGE-2) is produced. Human PBMC cells were cultured and incubated with compound in example 1 at different concentrations. Cells (1×10^6/mL) were challenged with lipopolysaccharides (LPS) at a concentration of (100 ng/mL) for 20 hours. Inhibition of COX-2 was determined by the measurement of PGE-2 levels in the supernatant by ELISA (Cayman Chemicals). For the determination of PGE-2 levels, supernatants were incubated in the ELISA plate and detected by calorimetric reaction. […] The endogenous form, COX-1 is only activated when there is a physiological stimulus and goes through the same pathway for the production of PGE-2 levels. Human monocytic U-937 (2.5×10^5/mL) cells were charged with arachidonic acid to activate the COX-1 pathway. It produced PGE-2 following these kind of physiological induction. To assay the COX-1 activity, cells were preincubated with the compound for 15 min (indomethacin was kept as positive control) and then they were challenged with 10 μM arachidonic acid for next 20 min. Supernatants were harvested and measured for PGE-2 as marker of COX-1 activity.
# [13] = biological target: T2, COX-1 (Homo sapiens, UniProt P23219); assay: COX-1 activity: arachidonic acid induced PGE-2 in U-937 cells; assay type: cell-based; details: 10 μM compound, 10 μM arachidonic acid 20 min
# T2 construct: endogenous in cells; host or cells: U-937 human monocytic cells
# Protocol: as §3
# [14] = test system: SJL/J mice; assay: Experimental allergic encephalomyelitis (EAE) model of multiple sclerosis; assay type: in vivo; details: EAE induced by spinal chord homogenate in SJL/J mice
# Protocol: Multiple Sclerosis (MS) is an autoimmune disease and is regulated by cytokine levels. In order to test the effect of compound 1 in example 1 in MS model, experimental allergic encepahalomyalitis (EAE) was induced in SJL/J mice. EAE is an autoimmune inflammatory disease of the central nervous system (CNS). […] EAE was induced by injecting spinal chord homogenate and the animals were treated with example compounds. The severity of EAE was established by clinical scores of paralysis.
# [15] = test system: MCF-7; assay: Breast cancer cell growth (MTS viability); assay type: cell-based; details: for inhibition of breast cancer cell growth: MCF-7, six consecutive days, MTS every 48 hrs
# Protocol: MCF-7 is a breast cancer cells and they were grown in 96 well plates at 1000 cells/well. The cells were pretreated with either compound 11 in example 11 and 8 in example 8 or DMSO for six consecutive days. Every 48 hrs they were stained with MTS dye and viability was checked accordingly.
# [16] = test system: DU-145; assay: Prostate cancer cell growth (MTS viability); assay type: cell-based; details: DU-145, six consecutive days, MTS every 48 hrs
# Protocol: DU-145 is a prostate cancer cell and they were grown in 96 well plates at 1000 cells/well. The cells were pretreated with either compound 11 in example 11 and 8 in example 8 or DMSO for six consecutive days. Every 48 hrs they were stained with MTS dye and viability was checked accordingly.
# T2 sequence (P23219 24-599): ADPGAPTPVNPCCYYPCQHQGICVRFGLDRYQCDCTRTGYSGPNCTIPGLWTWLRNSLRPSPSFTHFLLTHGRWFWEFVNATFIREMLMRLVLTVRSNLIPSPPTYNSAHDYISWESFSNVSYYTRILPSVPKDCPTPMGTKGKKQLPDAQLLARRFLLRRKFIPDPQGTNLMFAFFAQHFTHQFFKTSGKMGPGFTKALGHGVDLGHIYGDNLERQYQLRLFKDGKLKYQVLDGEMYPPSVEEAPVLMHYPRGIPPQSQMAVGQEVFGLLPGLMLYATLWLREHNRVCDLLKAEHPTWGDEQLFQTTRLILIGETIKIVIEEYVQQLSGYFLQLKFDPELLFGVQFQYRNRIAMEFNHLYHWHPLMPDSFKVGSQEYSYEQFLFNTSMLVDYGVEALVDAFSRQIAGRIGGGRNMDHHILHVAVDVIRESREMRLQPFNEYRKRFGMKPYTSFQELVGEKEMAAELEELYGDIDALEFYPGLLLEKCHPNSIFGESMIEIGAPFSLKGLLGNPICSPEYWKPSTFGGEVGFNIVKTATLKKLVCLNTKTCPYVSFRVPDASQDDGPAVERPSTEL
compound,measurement,setting,value
"C[C@@H]1C[C@H]2[C@@H]3CCC4=CC(=O)C=C[C@]4(C)[C@@]3(F)[C@@H](O)C[C@]2(C)[C@@]1(O)C(=O)CO [dexamethasone, reference compound]",inhibition of TNF levels,[1]; 5 mg/kg body weight oral,95%
"CN(C)C(=O)[C@@H](N)Cc1ccc(Oc2ccc(/C=C3/C(=O)Nc4ccccc43)cc2)cc1.Cl [Compound 20, 2-amino-N,N-dimethyl-3-{4-[4-(2-oxo-1,2-dihydroindol-3-ylidenemethyl)-phenoxy]-phenyl}-propionamide hydrochloric acid]",blood glucose,[2],Reduces Blood Glucose
same,body weight,[2]; compared to vehicle,lowering of body weight compared to vehicle
same,blood glucose,[3],strong glucose lowering activity
same,body weight gain,[4],less body weight gain compared to vehicle treated animals
same,decrease of serum insulin level,[5],70%
same,adipogenesis (differentiation of fibroblasts),"[6]; 3T3-L1, different concentrations, stained on day 13",remained unchanged
same,affinity to PPARγ receptor (indirect proof from adipogenesis),[6]; inferred from 3T3-L1 adipogenesis,no affinity to PPARγ receptor
"Cl.NC(=O)[C@@H](N)Cc1ccc(Oc2ccc(/C=C3/C(=O)Nc4ccccc43)cc2)cc1 [Compound 21, 2-amino-3-{4-[4-(2-oxo-1,2-dihydroindol-3-ylidenemethyl)-phenoxy]-phenyl}-propionamide hydrochloric acid]",inhibition of colon cancer cell growth,[7],completely inhibited colon cancer cell growth
"COC(=O)C(N)Cc1ccc(Oc2ccc(C=C3C(=O)Nc4ccccc43)cc2)cc1.Cl (stereo not drawn) [Compound 1, Methyl-2-amino-3-(4-{4-[(2-oxo-1,2-dihydro-3H-indol-3-ylidene)methyl]phenoxy}phenyl) propanoate hydrochloride]",inhibition of TNF-α production,[8],inhibit the production of three major pro-inflammatory cytokines in a dose dependent manner
same,inhibition of IL-1β production,[9],inhibit the production of three major pro-inflammatory cytokines in a dose dependent manner
same,inhibition of IL-6 production,[10],inhibit the production of three major pro-inflammatory cytokines in a dose dependent manner
same,change in cell viability,[11],No significant change in cell viability
same,inhibition of LPS induced PGE-2 production,"[12]; 10 μM compound, hPBMC",completely inhibited LPS induced PGE-2 production
same,selectivity on COX-2 over COX-1 activity,[12]; LPS induced vs arachidonic acid induced PGE-2,Selectively Inhibits COX-2 Than COX-1 Enzyme
same,inhibition of LPS induced COX-2 activity (PGE-2 levels),"[12]; hPBMC, LPS 100 ng/mL for 20 hours, different concentrations",dose dependently inhibited LPS induced COX-2 activity
same,effect on arachidonic acid induced PGE-2 levels (COX-1 activity),[13],no effect on arachidonic acid induced PGE-2 levels
same,reduction of TNF levels compared to control group,[1]; 50 mg/kg bw oral,25%
same,severity of EAE (clinical scores of paralysis),[14],complete prevention of EAE
"COC(=O)C(N)Cc1ccc(Oc2ccc(C=C3C(=O)Nc4ccccc43)c(C(F)(F)F)c2)cc1.Cl (stereo not drawn) [Compound 8, Methyl-2-amino-3-(4-{3-trifluoromethyl-4-[(2-oxo-1,2-dihydro-3H-indol-3-ylidene)methyl]phenoxy}phenyl) propanoate hydrochloride]",dose dependence of breast cancer cell growth inhibition,"[15]; MCF-7, doses from 1-50 μM",worked equally well
same,inhibition of breast cancer cell growth,[15],very strong in inhibiting the breast cancer cell growth
same,inhibition of prostate cancer cell growth,[16],selectively kills breast cancer cells
"COC(=O)C(N)Cc1ccc(Oc2ccc(CC3C(=O)Nc4ccccc43)cc2C(F)(F)F)cc1.Cl (stereo not drawn) [Compound 11, Methyl-2-amino-3-(4-{2-trifluoromethyl-4-[(2-oxo-2,3-dihydro-1H-indol-3-yl)methyl]phenoxy}phenyl) propanoate hydrochloride]",inhibition of breast cancer cell growth,[15],Inhibits Breast Cancer Cell Growth
same,inhibition of prostate cancer cell growth,[16],very similar in both breast and prostate cancer cells

# Reference: patent US20080319031A1, “Novel Tyrosine Derivatives” (Orchid Chemicals & Pharmaceuticals Limited, priority 2005, published 2008)
